Laboratory results published in article PMC12036814 (Angewandte Chemie (International Ed. in English), 2025).

System: HEK‐293 cells
Assay: Whole proteome analysis (LC-MS/MS, LFQ) of treated HEK-293 cells
Settings: 1 µM, 24 h, versus vehicle

In the case of `Cc1ccccc1CN1C(=O)C2=C(CCN(Cc3ccccc3)C2)N2CCN=C12` [ONC201], the “pattern of downregulated proteins and affected pathways” value is reported as “strikingly similar to Ciprofloxacin treated cells”.
